Measured values: patent US6649648B1, “Therapeutic methods and compositions involving isoflavones” (Novogen Research Pty Limited, priority 1996, dated 2003)

How the values were obtained:
[1] = system: bowel cancer; experiment: Patients with advanced or terminal bowel cancer; assay type: in vivo, human; conditions: intravenous infusion 2 g daily, three weeks, advanced bowel cancer
Method: A patient suffering from advanced bowel cancer is treated daily for three weeks with an intravenous infusion of 2 g of the compound of the formula 14 dissolved in sterile saline. […] Progression of the tumour is also arrested over the treatment period.
A second patient suffering from the same condition is treated in the same manner as the above patient with the exception that the 2 g dose of the active compound is administered by way of bolus injection.
In a further series of experiments a group of patients suffering from terminal bowel cancer were treated by bolus daily injections (intravenous or intramuscular) of 2 g of a compound selected from one of the formulae 1 to 19. Over the test period there is shown to be a marked reduction in pain and discomfort. Tumour markers (carcino-embryonic antigen (CEA)) are reduced as evidenced by blood analysis and tumour spread decreased.

[2] = system: breast cancer; experiment: Prevention of breast cancer in high risk women, transdermal patch; assay type: in vivo, human; conditions: same manner and amount, six month trial period
Method: This study investigated whether compounds 1 through 19 administered transdermally each day through a skin patch could be used to prevent breast cancer or metastatic cancers following cancer therapy. Patches were prepared that contained a lipophylic carrier cream which is readily absorbed through the skin. The cream comprised a glycerol cold cream which contained glycerin and peanut oil. A selected active compound from any one of compounds of the formulae 1 to 19 is mixed with the lipophylic cream such that each patch comprises 10 mg to 100 mg of active compound. The patch is applied to the skin each day and rapid absorption occurs. After two hours the patch is removed. Alternatively, the patch may be left on for a greater part of each day.

[3] = system: rat aortic rings; experiment: Vascular reactivity, rat aortic rings with noradrenaline; assay type: cell-based; conditions: rat aortic ring, vasoconstrictor noradrenaline
Method: Vascular reactivity studies using rat aortic rings is generally regarded as directly predictive of biological effects of candidate compounds in the treatment of the above conditions (Karapapanis, S. et al (1994) Heptology, 20, 6, 1516-1521). The inhibitory effect on restrictor responses in the aortic ring is measured in the presence of the vasoconstrictor noradrenaline according to the procedure of Karapapanis (supra).

[4] = system: K562; experiment: Anti-cancer screening assay, inhibition of cell proliferation; assay type: cell-based, human; conditions: cell line printed K563 at the result
Method: (§1) The activity of compounds of the present invention in inhibiting the growth of hormone responsive cancer cells were tested using the well characterised human responsive cancer cell lines K562 and HL60. The anti-cancer screening assay measured inhibition of cell proliferation which results in terminal differential cell death.

[5] = system: HL60; experiment: as above; assay type: cell-based, human
Method: as §1

[6] = system: LDL receptor; experiment: LDL Receptor Studies, LDL uptake into liver cells; assay type: cell-based
Source text: 4. LDL Receptor Studies—Treatment of atherosclerosis, myocardial infarction, stroke and hypertension. This will establish that compounds which up-regulate the LDL receptor, lead to decreased circulating LDL, and therefore reduces the prospect of atherosclerosis, myocardial infarction, stroke and hypertension. Using an assay according to Stephan Z. F. and Yurachek, E. C. (1993) J. Lipid. Res. 34, 325-330, it is shown that the compounds of the formulae 1 to 19 are effective in increasing LDL uptake into liver cells, this being directly predictive of decrease of circulating LDL in the human blood stream.

[7] = system: LDL; experiment: LDL Antioxidation Test; assay type: biochemical; conditions: for Lag Times / % Increase Over Control: LDL 0.25 mg/ml, 10 μm active compound, 4 μm Cu++; for Lag Times: control 20 min; for antioxidant potency (in words): conclusion from the LDL antioxidation test; for % Increase Over Control: lag time
Method: 1. LDL Antioxidation Test—This test measures the ability of a compound to directly scavenge free radicals or to chelate transition metals. […] These tests were carried out according to the procedure of Esterbauer et al Free. Rad. Res. Coms. (1989) 6, 67-75. Briefly, LDL (0.25 mg/ml) is incubated with 10 μm active compound in the presence of 4 μm Cu^++, and LDL was assayed for oxidation by HPLC analysis.

[8] = system: human LDL; experiment: Redox Test (LDL lipid oxidation in the presence of vitamin E); assay type: biochemical; conditions: for Redox Index: human LDL, 20% consumption of endogenous α-tocopherol, BHT 10 μm, lower value = higher activity
Source text: 2. Redox Test—This test measures the ability of a compound to prevent LDL lipid oxidation in the presence of vitamin E. The test is a physiological test, vitamin E (α-tocopherol) is present with LDL in the blood stream, and LDL oxidation is believed to be one of the major factors of the development of atherosclerosis. The lower values, the higher the redox activity. […] The test indirectly assesses the ability of a compound to synergise with α-tocopherol in human LDL undergoing mild and chemically controlled oxidation. Oxidation is measured by the accumulation of cholesterylester hydroperoxides at a time point corresponding to 20% consumption of endogenous α-tocopherol. Butylated hydroxytoluene (BHT 10 μm) is used as a positive control. The redox index is measured by the relative extent of oxidation of LDL in the presence of the sample divided by the relative extent of oxidation in the absence of the test compounds. […] Tests were carried out according to Bowry, V. W. et al (1995) J. Bio. Chem. 270 (11) 5756-5763.

CC(C(=O)c1c(O)cc(O)cc1O)c1ccc(O)cc1 (stereo not shown) [Compound 14, 6-hydroxy-O-demethylangolensin]
cancer markers [1]: reduction
pain and discomfort [1]: significantly reduced
progression of the tumour [1]: arrested
evidence of breast cancer or other metastatic cancer [2]: same beneficial results

C=C(C(=O)c1ccc(O)cc1O)c1ccc(O)cc1 [Compound 11, 2-dehydro-O-demethylangolensin]
evidence of breast cancer or other metastatic cancer [2]: same beneficial results

Oc1ccc([C@H]2COc3cc(O)ccc3C2)cc1 [equol]
inhibitory effect on vaso-constrictor responses to noradrenaline [3]: potent inhibitory effects on responses to noradrenaline
inhibition of growth of cell line [4]: potent inhibitors of growth
inhibition of growth of cell line [5]: potent inhibitors of growth
increase of LDL uptake into liver cells [6]: particularly active

Oc1ccc(C2=Cc3ccc(O)cc3OC2)cc1 [Dehydroequol]
Lag Times [7]: >140 min
antioxidant potency (in words) [7]: extremely potent antixoidants
% Increase Over Control [7]: >600%
synergistic interaction with vitamin E to prevent oxidation ([8]; Redox Test): interacts synergistically with vitamin E to prevent oxidation
Redox Index [8]: 4.5±1.2

O=C1c2c(O)cc(O)cc2OCC1c1ccc(O)cc1 (stereo not shown) [dihydrogenestein, Dihydrogenistein]
inhibitory effect on vaso-constrictor responses to noradrenaline [3]: potent inhibitory effects on responses to noradrenaline

Cc1cc(C(C)(C)C)c(O)c(C(C)(C)C)c1 [BHT, Butylated hydroxytoluene, reference compound]
Redox Index [8]: 6.3

Tetrahydrodaidzein
inhibitory effect on vaso-constrictor responses to noradrenaline [3]: potent inhibitory effects on responses to noradrenaline
Lag Times [7]: >140 min
antioxidant potency (in words) [7]: extremely potent antixoidants
% Increase Over Control [7]: >600%
inhibition of growth of cell line [5]: strong inhibition

O=C1c2ccc(O)cc2OCC1c1ccc(O)cc1 (stereo not shown) [Dihydrodaidzein, dihydrodaidzein]
inhibitory effect on vaso-constrictor responses to noradrenaline [3]: potent inhibitory effects on responses to noradrenaline
